These results are taken from paper PMC9354705, “Characterization of TR‐107, a novel chemical activator of the human mitochondrial protease ClpP” (Pharmacology Research & Perspectives, 2022).

Several values for one entry are separate records, joined by “and”; a condition that tells them apart may be missing. Equal entries are not always repeated. Where two headings read alike, the source gives them in different places.

In data set [1] the test system is MDA‐MB‐231 cells. Put plainly: Cell viability (total cell count, Hoechst stain) in MDA‐MB‐231 cells. In kind it is cell-based, human. As to conditions: for IC50: Homo sapiens, MDA-MB-231, 72 h.
Data set [2] has as its target T1, recombinant human ClpP (Homo sapiens, UniProt Q16740).
T1 construct: made in house
Kind of data set: Surface plasmon resonance binding to ClpP. As to conditions: steady state, one‐site Langmuir binding model, 25°C; read-out: Kd (SPR). How it is done: For the surface plasmon resonance (SPR) experiments, recombinant human ClpP was purified as previously described.[46] SPR measurements were performed on a Biacore X100 instrument (Cytiva Life Sciences) at 25°C in buffer (25 mM sodium phosphate, pH 7.5, 200 mM KCl, 0.05% Tween‐20, and 0.004% DMSO). ClpP was immobilized onto flowcell two of a CM5 chip (Cytive Life Sciences) using the amine coupling wizard using Biacore X100 Control Software. A pulse of a mixture of NHS and EDC activated the CM5 chip surface. ClpP was diluted to 100 μg/ml in 10 mM sodium acetate, pH 4.5 immediately prior to use and injected over the activated surface for 180 s. The remaining activated sites were blocked with a pulse of ethanolamine. 12 000 RU of ClpP was captured using this procedure. Flowcell 1 was unmodified and served as a reference. For TR‐107 binding to ClpP, a concentration series of TR‐107 in DMSO was diluted into the buffer to achieve 0.004% final DMSO concentration in all samples. Three replicates were injected for each concentration. Data were blank subtracted and analysis was performed in Biacore X100 Evaluation Software (Cytiva Life Sciences). The steady‐state response was calculated 15 s before the end of injection with a window of 15 s. Data were fitted to a one‐site Langmuir binding model.
Background: In SPR one partner is held on a chip, and binding of the other changes the refractive index at the surface.

Data set [3] concerns MDA‐MB‐231 xenografts. Put plainly: MDA‐MB‐231 mouse xenograft study. Format: in vivo. How it is done: Mitochondrial DNA copy number was determined as previously described.[23] Briefly, genomic DNA was isolated from tissue lysate with DNeasy Blood & Tissue kit (Qiagen, 69504). mtDNA copy number was determined by quantitative PCR with a human mitochondrial to nuclear DNA ratio kit (Takara Bio USA, 7246).
Female athymic nude mice (Crl:NU[Ncr]‐Foxn1^ nu , Charles River) were 8 weeks old with body weight (BW) range of 19.0–27.0 g on Day 1 of the study. Animals were fed ad libitum water (reverse osmosis, 1 ppm Cl) and NIH 31 Modified and Irradiated Lab Diet® consisting of 18.0% crude protein, 5.0% crude fat, and 5.0% crude fiber. Mice were housed on irradiated Enrich‐o'cobs™ Laboratory Animal Bedding in static microisolators on a 14‐h light cycle at 20–22°C and 40%–60% humidity. Charles River Discovery Services North Carolina (CR Discovery Services) specifically complies with the recommendations of the Guide for Care and Use of Laboratory Animals with respect to restraint, husbandry, surgical procedures, feed and fluid regulation, and veterinary care. The animal care and use program at CR Discovery Services is accredited by the Association for Assessment and Accreditation of Laboratory Animal Care International.
MDA‐MB‐231 human breast adenocarcinoma cells were grown to mid‐log phase in RPMI‐1640 supplemented with 10% FBS, 2 mM glutamine, 100 units/ml sodium penicillin G, 25 μg/ml gentamicin, 100 μg/ml streptomycin sulfate, 0.075% sodium bicarbonate, 10 mM HEPES, and 1 mM sodium pyruvate. Cells were cultures at 37°C and 5% CO2.
MDA‐MB‐231 cells were harvested during exponential growth and resuspended in cold, sterile DPBS. Each animal received an orthotopic injection of 5 × 10^6 cells (0.05 ml volume) into the mammary fat pad. Tumor growth was monitored as the average tumor size approached the target range of 60–100 mm^3. Tumors were measured in two dimensions via caliper and volume was calculated using the following formula: Tumor Volume=w^2×l/2, where w is the width and l is the length (mm) of the tumor. Tumor weight was estimated based on the assumption that 1 mg = 1 mm^3. Fourteen days later (Day 1), animals were sorted into groups (n = 10 per group) with a mean tumor volume of 70–73 mm^3.
Compounds were administered orally (p.o.) in a dosing volume of 10 ml/kg. Twice daily doses (B.I.D) were administered at least 6 h apart.
Tumors were measured using calipers biweekly and animals were euthanized upon reaching tumor volume > 1500 mm^3 or on the final study day (Day 36), whichever came first. Time to endpoint (TTE) for analysis was calculated for animals that exited the study due to tumor volume using the following equation: TTE=log10endpoint volume−b/m, where TTE is expressed in days, endpoint volume is expressed in mm^3, b is the y‐intercept, and m is the slope of the line obtained by linear regression of a log‐transformed tumor growth data set. […] In instance where this equation yields a TTE day preceding the day prior to reaching the endpoint or exceeding the day of reaching the endpoint, a linear interpolation was performed to approximate TTE. Animals documented as having died of nontreatment‐related causes due to accident or unknown etiology were excluded from TTE calculations and all further analysis. Animals documented having died due to treatment‐related deaths or nontreatment‐related due to metastasis were assigned a TTE value equivalent to the day of death. Treatment outcome was evaluated from tumor growth delay (TGD) defined as the increase in the median TTE in the treatment group compared with the control group.
On Day 36, all animals in all groups were sampled. Tumors were excised, divided into two parts, and weighed. Part 1 was preserved in a 5 ml fixative solution (4% formaldehyde, 2% glutaraldehyde in 0.1 M cacodylate buffer) and stored at 4°C. Part 2 was trimmed to be less than 0.5 cm in at least one dimension, submerged in five volumes of RNAlater solution, and stored at −20°C.

Data set [4] relates to MDA‐MB‐231 cells. Kind of data set: Mitochondrial respiration analysis (Seahorse XF). In kind it is cell-based, human. Particulars: 24 h. How it is done:
Cellular oxygen consumption and extracellular acidification rates (OCR and ECAR, respectively) were measured using Seahorse XFe96 (Agilent). MDA‐MB‐231 cells were plated (15 000 cells/well) in Seahorse XF96 plates (Agilent, 102416‐100) and allowed to adhere overnight. Cells were then treated with 25 or 50 nM TR‐107 for 24 h. On the day of Seahorse XF analysis, the growth medium was replaced with an XF base medium (Agilent, 103575‐100) supplemented with appropriate concentrations of TR‐107. After measurement of basal OCR/ECAR, 1 μM Oligomycin, 1 μM FCCP, and 1 μM Rotenone/Antimycin A (Agilent, 103015‐100) were added at indicated time points. OCR/ECAR were measured every 6.5 min for 73 min.

T1 sequence (Q16740 57-277): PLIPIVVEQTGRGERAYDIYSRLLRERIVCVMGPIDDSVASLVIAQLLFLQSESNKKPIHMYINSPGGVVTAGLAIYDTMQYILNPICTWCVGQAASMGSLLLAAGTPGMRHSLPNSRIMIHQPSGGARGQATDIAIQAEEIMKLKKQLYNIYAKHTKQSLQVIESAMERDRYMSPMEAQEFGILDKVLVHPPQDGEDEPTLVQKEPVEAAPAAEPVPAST

A word on the IC50: it is the concentration that inhibits the measured activity by half. As usually defined, the Kd is the free concentration of one partner at which half of the binding sites on the other are occupied at equilibrium, for simple one-to-one binding. In the case of `N#Cc1cccc(CN2CCc3ncn(Cc4ccc(Cl)cc4)c(=O)c3C2)c1` [TR‐107], the IC50 in data set [1] (WT cells, Hoechst stain, mean N = 3, read-out: IC50 (nM) MDA-MB-231) came to 23 nM; in data set [1] (media containing galactose, read-out: IC50 (nM) Galactose) it was 9.8 nM; in data set [1] (media containing glucose, read-out: IC50 (nM) Glucose), 19 nM. Moreover, the “shift of growth inhibition dose–response (IC50) glucose to galactose” value in data set [1] (galactose instead of glucose, MDA‐MB‐231, 72 h) was ~ 2 fold. In data set [2], the Kd is ~180 nM and 178 nM. Moreover, the “reduction in tumor volume” value in data set [3] (4 mg/kg (G2) and 8 mg/kg (G3) oral, day 26, vs vehicle) is reported as ~ 50%. In addition, the “increase in median survival” value in data set [3] (4 mg/kg and 8 mg/kg oral, both groups, vs vehicle) was ~ 35%. Also, in data set [3] (8 mg/kg (G3) vs control, end of study), the “mitochondrial DNA in tumor lysates” value is reported as “substantial loss”. The “PYCR2 and HMGCS1 protein levels in tumor lysates” value in data set [3] (8 mg/kg vs vehicle) is on record as “significantly reduced”. In data set [3] (8 mg/kg vs vehicle), the “TFAM in xenograft tumor lysates (immunoblot)” value is on record as “significant loss”. In data set [3] (even at the highest dosing regimen), the weight loss entry is reported as “less than 5%”. Besides, the tolerability entry in data set [3] (oral 4 and 8 mg/kg) is on record as “well tolerated”. Also, the “decline in oxygen consumption rate (OCR)” value in data set [4] (ClpP‐KO MDA‐MB‐231, 25, 50 nM) was “not observed”. Also, in data set [4] (MDA‐MB‐231, 25, 50 nM), the “extracellular acidification (ECAR)” value was “dose‐dependent increase”. Moreover, the “oxygen consumption rate (OCR)” value in data set [4] (WT MDA‐MB‐231, 25, 50 nM) is “dose‐dependent decline”.
